ChEMBL document CHEMBL1201862, “PubChem BioAssay data set” (2004)
Several values for one entry are separate records, joined by “and”; a condition that tells them apart may be missing. Equal values may be shown once.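 Tested at 5 concentrations; 48 h exposure; 96-well plates; endpoints linearly interpolated, else capped at highest concentration. The concentration for 50% growth inhibition is given as GI50.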 Activity calls are given as the source filed them. No stated cut-off is given here; in the data, active = GI50 up to about 1.1 µM and inactive = higher. Residues, ends and D or L forms follow the SMILES beside them. *: point of attachment. Boc = CC(C)(C)OC(=O)*; Bn = c1ccc(C*)cc1

Tests used:
Test in all cases: inhibition of tumour cell growth, NCI panel, 48 h
BT-549 = test system: BT-549
HOP-62 = test system: HOP-62
SNB-19 = test system: SNB-19
HL-60 = test system: HL-60
IGROV-1 = test system: IGROV-1
PC-3 = test system: PC-3
UACC-62 = test system: UACC-62
SF-539 = test system: SF-539
U-251 = test system: U-251
NCI/ADR-RES = test system: NCI/ADR-RES
CCRF-CEM = test system: CCRF-CEM
SN12C = test system: SN12C
SK-MEL-5 = test system: SK-MEL-5
SR = test system: SR
OVCAR-4 = test system: OVCAR-4
SW-620 = test system: SW-620
ACHN = test system: ACHN
UO-31 = test system: UO-31
OVCAR-5 = test system: OVCAR-5
SF-268 = test system: SF-268
DU-145 = test system: DU-145
HT-29 = test system: HT-29
COLO 205 = test system: COLO 205
TK-10 = test system: TK-10
NCI-H226 = test system: NCI-H226
OVCAR-3 = test system: OVCAR-3
SF-295 = test system: SF-295
NCI-H460 = test system: NCI-H460
EKVX = test system: EKVX
OVCAR-8 = test system: OVCAR-8
HCC 2998 = test system: HCC 2998
CAKI-1 = test system: CAKI-1
MOLT-4 = test system: MOLT-4
UACC-257 = test system: UACC-257
786-0 = test system: 786-0
RXF 393 = test system: RXF 393
MCF7 = test system: MCF7
Hs-578T = test system: Hs-578T
SNB-75 = test system: SNB-75
A498 = test system: A498
KM12 = test system: KM12
RPMI-8226 = test system: RPMI-8226
HCT-15 = test system: HCT-15
K562 = test system: K562
NCI-H23 = test system: NCI-H23
Malme-3M = test system: Malme-3M
A549 = test system: A549
MDA-MB-435 = test system: MDA-MB-435
HOP-92 = test system: HOP-92
SK-MEL-2 = test system: SK-MEL-2
SK-OV-3 = test system: SK-OV-3
NCI-H522 = test system: NCI-H522
MDA-MB-231 = test system: MDA-MB-231
M14 = test system: M14
MDA-N = test system: MDA-N
LOX IMVI = test system: LOX IMVI
HCT-116 = test system: HCT-116
T47D = test system: T47D
SK-MEL-28 = test system: SK-MEL-28

Measured: GI50

CC(O)=NC(Cc1ccc2ccccc2c1)C(O)=NC(Cc1ccc(Cl)cc1)C(O)=NC(Cc1c[nH]c2ccccc12)C(O)=NC(CO)C(O)=NC(Cc1ccc(O)cc1)C(O)=NC(CCCN=C(N)N)C(O)=NC(CC(C)C)C(O)=NC(CCCN=C(N)N)C(=O)N1CCCC1C(O)=NC(C)C(=N)O (configuration not stated)
inactive: BT-549 12.1 µM | HOP-62 85.7 µM | SNB-19 48.9 µM | HL-60 > 100 µM | IGROV-1 33.7 µM | PC-3 32.3 µM | UACC-62 45.6 µM | SF-539 36.6 µM | U-251 31.6 µM | NCI/ADR-RES 60.3 µM | CCRF-CEM > 100 µM | SN12C 37.5 µM | SK-MEL-5 34.5 µM | SR > 100 µM | OVCAR-4 74 µM | SW-620 76.7 µM | ACHN 15 µM | UO-31 26 µM | OVCAR-5 41.3 µM | SF-268 > 100 µM | DU-145 26.5 µM | HT-29 35.5 µM | COLO 205 26.3 µM | TK-10 30.9 µM | NCI-H226 30.1 µM | OVCAR-3 > 100 µM | SF-295 27.9 µM | NCI-H460 54.7 µM | EKVX 39.5 µM | OVCAR-8 27.1 µM | HCC 2998 63.4 µM | CAKI-1 54.7 µM | MOLT-4 > 100 µM | UACC-257 32.4 µM | 786-0 35.8 µM | RXF 393 37.1 µM | MCF7 43.8 µM | Hs-578T 47.4 µM | SNB-75 38.1 µM | A498 37.6 µM | KM12 41.1 µM | RPMI-8226 > 100 µM | K562 > 100 µM | NCI-H23 31.3 µM | Malme-3M 99.5 µM | A549 42.6 µM | MDA-MB-435 40.1 µM | HOP-92 35.5 µM | SK-MEL-2 13.4 µM | SK-OV-3 43.5 µM | NCI-H522 45.9 µM | MDA-MB-231 59.7 µM | M14 59.8 µM | MDA-N 30.4 µM
63 µM: HCT-15

CNC(=O)C(CC(C)C)NC(=O)C(C)NC(=O)C(Cc1ccc(OCc2ccccc2)cc1)NC(=O)C(COCc1ccccc1)NC(=O)OC(C)(C)C (configuration not stated) (Boc-S(Bn)Y(Bn)AL-NHMe; configuration not given here)
> 100 µM: HCT-15
inactive: BT-549 18.5 µM and 22 µM | HOP-62 20.5 µM and 22.6 µM | SNB-19 30 µM and 17.4 µM | IGROV-1 22.3 µM and 23.1 µM | UACC-62 18.5 µM and > 10 µM | SF-539 > 42.2 µM | U-251 15.9 µM and 8.57 µM | NCI/ADR-RES > 100 µM | SR 15.1 µM and 8.55 µM | OVCAR-4 17.9 µM and 20.6 µM | SW-620 11.5 µM and 8.65 µM | UO-31 > 100 µM | SF-268 17.5 µM and 22.9 µM | DU-145 65.5 µM | HT-29 13.6 µM and 13.4 µM | OVCAR-8 16.9 µM and 17.1 µM | LOX IMVI 16.5 µM and 11.4 µM | CAKI-1 32.5 µM and > 64 µM | MOLT-4 6.85 µM and 6.15 µM | UACC-257 > 100 µM | 786-0 22.8 µM and 20.7 µM | MCF7 10.7 µM and 16.1 µM | Hs-578T 25 µM and 15.8 µM | KM12 17 µM and 18.2 µM | K562 9.95 µM and 12.6 µM | HCT-116 6.5 µM and 7.45 µM | NCI-H23 20.1 µM and 27.2 µM | HOP-92 24.9 µM and 30.5 µM | SK-OV-3 18.5 µM and 27.7 µM | NCI-H522 > 10 µM and 13.8 µM | MDA-MB-231 15.6 µM and 16.6 µM | MDA-N 12.1 µM and 14.8 µM

CSc1nncc2[nH]c(C)nc12
inactive: BT-549 > 100 µM | HOP-62 > 100 µM | HL-60 > 100 µM | IGROV-1 > 100 µM | PC-3 > 100 µM | UACC-62 > 100 µM | SF-539 > 100 µM | U-251 > 100 µM | NCI/ADR-RES > 100 µM | CCRF-CEM > 100 µM | SN12C > 100 µM | SK-MEL-5 > 100 µM | OVCAR-4 > 100 µM | SW-620 > 100 µM | ACHN > 100 µM | UO-31 > 100 µM | OVCAR-5 > 100 µM | HT-29 > 100 µM | COLO 205 > 100 µM | TK-10 > 100 µM | NCI-H226 > 100 µM | OVCAR-3 > 100 µM | SF-295 > 100 µM | T47D > 100 µM | EKVX > 100 µM | OVCAR-8 > 100 µM | LOX IMVI > 100 µM | HCC 2998 > 100 µM | CAKI-1 > 100 µM | MOLT-4 > 100 µM | UACC-257 > 100 µM | 786-0 > 100 µM | SK-MEL-28 > 100 µM | MCF7 > 100 µM | SNB-75 > 100 µM | A498 > 100 µM | KM12 > 100 µM | RPMI-8226 > 100 µM | K562 > 100 µM | HCT-116 > 100 µM | NCI-H23 > 100 µM | Malme-3M > 100 µM | A549 > 100 µM | MDA-MB-435 > 100 µM | SK-MEL-2 > 100 µM | SK-OV-3 > 100 µM | NCI-H522 > 100 µM | MDA-MB-231 > 100 µM | M14 > 100 µM | MDA-N > 100 µM
> 100 µM: HCT-15

CC(C(=O)O)c1ccc(-c2ccccc2)c(F)c1 (configuration not stated) [TARENFLURBIL]
> 100 µM: HCT-15
inactive: BT-549 > 100 µM | HOP-62 > 100 µM | HL-60 > 100 µM | SF-539 > 100 µM | SN12C > 100 µM | UO-31 > 100 µM | SF-268 > 100 µM | NCI-H226 > 100 µM | EKVX > 100 µM | SK-MEL-28 > 100 µM | MCF7 > 100 µM | Hs-578T > 100 µM | SNB-75 > 100 µM | Malme-3M > 100 µM | A549 > 100 µM | MDA-MB-435 > 100 µM | SK-MEL-2 > 100 µM | NCI-H522 > 100 µM | MDA-N > 100 µM

O=C(/C=C/c1ccccc1O)/C=C/c1ccccc1O
1.45 µM: HCT-15
inactive: BT-549 1.24 µM | HOP-62 2.26 µM | SNB-19 1.82 µM | HL-60 2.9 µM | IGROV-1 1.64 µM | PC-3 1.74 µM | UACC-62 1.67 µM | SF-539 1.55 µM | NCI/ADR-RES 2.14 µM | SN12C 1.72 µM | SK-MEL-5 1.37 µM | OVCAR-4 2.61 µM | ACHN 1.8 µM | UO-31 1.83 µM | OVCAR-5 1.49 µM | DU-145 1.51 µM | HT-29 1.92 µM | COLO 205 1.73 µM | TK-10 1.21 µM | SF-295 1.67 µM | NCI-H460 1.35 µM | OVCAR-8 2.26 µM | CAKI-1 1.52 µM | MOLT-4 1.26 µM | UACC-257 4.43 µM | 786-0 1.69 µM | SK-MEL-28 1.81 µM | Hs-578T 2.7 µM | SNB-75 3.9 µM | A498 1.82 µM | NCI-H23 1.53 µM | Malme-3M 2.11 µM | A549 2.21 µM | MDA-MB-435 1.95 µM | HOP-92 1.39 µM | SK-MEL-2 9.25 µM | SK-OV-3 1.86 µM | MDA-MB-231 2.48 µM | M14 1.71 µM | MDA-N 1.56 µM
active: U-251 0.482 µM | CCRF-CEM 0.305 µM | SR 0.526 µM | SW-620 0.966 µM | SF-268 0.254 µM | OVCAR-3 0.352 µM | LOX IMVI 0.252 µM | KM12 1.06 µM | RPMI-8226 0.19 µM | K562 0.611 µM | HCT-116 0.332 µM

C=CCN1C(=O)/C(=C/c2ccco2)N=C1SC1OC(COC(C)=O)C(OC(C)=O)C(OC(C)=O)C1OC(C)=O (configuration not stated)
inactive: BT-549 > 100 µM | HOP-62 > 100 µM | HL-60 13.2 µM | IGROV-1 > 100 µM | PC-3 > 100 µM | UACC-62 83.9 µM | SF-539 > 100 µM | U-251 > 100 µM | NCI/ADR-RES > 100 µM | SK-MEL-5 > 100 µM | SR 38.9 µM | OVCAR-4 > 100 µM | SW-620 > 100 µM | ACHN > 100 µM | OVCAR-5 > 100 µM | DU-145 80.2 µM | COLO 205 > 100 µM | TK-10 > 100 µM | NCI-H226 78.3 µM | OVCAR-3 > 100 µM | SF-295 > 100 µM | NCI-H460 > 100 µM | EKVX > 100 µM | OVCAR-8 > 100 µM | LOX IMVI > 100 µM | HCC 2998 > 100 µM | CAKI-1 > 100 µM | MOLT-4 32.7 µM | UACC-257 > 100 µM | SK-MEL-28 > 100 µM | RXF 393 44 µM | MCF7 62.5 µM | SNB-75 > 100 µM | A498 > 100 µM | KM12 > 100 µM | RPMI-8226 31.6 µM | K562 39.8 µM | NCI-H23 > 100 µM | Malme-3M 89.5 µM | MDA-MB-435 > 100 µM | HOP-92 72.9 µM | SK-MEL-2 > 100 µM | SK-OV-3 > 100 µM | NCI-H522 15.9 µM | MDA-MB-231 > 100 µM
88.1 µM: HCT-15
